Results published in patent US20090163549A1, “Pharmaceutical Composition Comprising an Amide Derivative” (priority 2005, published 2009).

Legend:
[1] = target: T1, human TRPV1 receptors (Homo sapiens, UniProt Q8NER1); test: Inhibition of capsaicin-stimulated Ca2+ influx (Fluo-3, FDSS-3000) in CHO-K1 cells stably expressing human TRPV1 receptors; format: cell-based; settings: CHO-K1 cells transfected with human TRPV1; capsaicin stimulation; Fluo-3 fluorescence
T1 construct: expressed in transfected cells; host or cells: CHO-K1
Protocol: CHO-K1 cells were transfected with human TRPV1 receptors and a cell culture stably expressing the receptor was seeded on a medium of alpha-MEM containing FBS(10%), HEPES (20 mM), geneticin (1 mg/mL) and antibiotic-antimycotic mixed solution(1%) in 96-well plates, and incubated at 37° C. and 5% CO2 for 2-3 days.
The medium was then substituted with Lording Buffer (20 mM HEPES, 115 mM NaCl, 5.4 mM KCl 0.8 mM MgCl2, 1.8 mM CaCl2, 13.8 mM D-glucose, 2.5 mM probenecid, pH 7.4) containing Fluo-3 AM (5 μM) and incubated at 37° C. and 5% CO2 for 1 hour. The test compounds were diluted to different concentrations and added to the plates after the incubated culture was washed with Wash Buffer (20 mM HEPES, 115 mM NaCl, 5.4 mM KCl 0.8 mM MgCl2, 5.0 mM CaCl2, 13.8 mM D-glucose, 2.5 mM probenecid, 0.1% BSA, pH 7.4) and placed at room temperature for 15 minutes.
The plate was set up in Functional Drug Screening System(FDSS)-3000(Hamamatsu Photonics K.K.) and amounts of Ca^2+ influx before and after capsaicin-stimulation were measured through changes in the fluorescence intensity of Fluo-3.
An inhibitory activity was evaluated by measuring fluorescence intensity in the presence of various concentrations of the test compounds and calculating their % inhibition on the basis that the maximum fluorescence intensity is 100% inhibition when stimulated by Wash Buffer, and 0% inhibition when stimulated by capsaicin
Data analysis and calculation of IC50 values were performed with Excel(Microsoft Corporation) and XLfit(idbs).

T1 sequence (Q8NER1 whole entry): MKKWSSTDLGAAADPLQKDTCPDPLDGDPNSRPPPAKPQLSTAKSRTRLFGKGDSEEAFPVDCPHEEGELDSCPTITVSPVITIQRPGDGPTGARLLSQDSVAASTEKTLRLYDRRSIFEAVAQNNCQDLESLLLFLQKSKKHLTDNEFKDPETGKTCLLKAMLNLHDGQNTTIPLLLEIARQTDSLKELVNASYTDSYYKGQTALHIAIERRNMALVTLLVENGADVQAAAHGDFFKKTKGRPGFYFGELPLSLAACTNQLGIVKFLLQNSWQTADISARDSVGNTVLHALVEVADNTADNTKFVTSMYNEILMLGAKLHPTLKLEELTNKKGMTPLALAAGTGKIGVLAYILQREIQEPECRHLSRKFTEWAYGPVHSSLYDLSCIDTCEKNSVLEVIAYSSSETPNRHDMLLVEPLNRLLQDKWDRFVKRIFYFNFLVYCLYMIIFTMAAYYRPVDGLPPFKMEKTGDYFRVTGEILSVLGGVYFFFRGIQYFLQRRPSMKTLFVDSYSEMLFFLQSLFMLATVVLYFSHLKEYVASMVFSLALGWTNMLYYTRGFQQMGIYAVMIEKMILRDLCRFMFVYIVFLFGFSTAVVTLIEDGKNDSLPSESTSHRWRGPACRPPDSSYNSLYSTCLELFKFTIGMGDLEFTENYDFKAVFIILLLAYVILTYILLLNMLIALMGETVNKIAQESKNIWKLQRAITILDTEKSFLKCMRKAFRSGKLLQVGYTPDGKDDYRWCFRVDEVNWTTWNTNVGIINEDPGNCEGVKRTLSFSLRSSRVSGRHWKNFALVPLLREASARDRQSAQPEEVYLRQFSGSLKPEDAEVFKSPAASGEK

Compound | melting point | IC50 [1]
CC(C)(C)c1ccc(NC(=O)c2ccc(C3(C)OCCCO3)cc2)cc1 [Ia-2, N-(4-tert-butylphenyl)-4-(2-methyl-1,3-dioxane-2-yl)benzamide] | 148 to 149 °C | 297 nM
CC(C)(C)c1ccc(NC(=O)c2ccc(C3NCCS3)cc2)cc1 (centres unmarked) [Ib-1] | 119 to 120 °C | 210 nM
CC(C)(C)c1ccc(NC(=O)c2ccc(C3(C)NCCS3)cc2)cc1 (centres unmarked) [Ib-2] | 152 to 153 °C | 190 nM
CC(C)(C)c1ccc(NC(=O)c2ccc(C3(C)NCCO3)cc2)cc1 (centres unmarked) [Ic-1] | 138 to 139 °C | 250 nM
CC(C)(C)c1ccc(NC(=O)c2ccc(C3(C)OCCO3)cc2)cc1 [Ie-2] | 180 to 189 °C | 230 nM
CC(C)(C)c1ccc(NC(=O)c2ccc(C3NOC(=O)N3)cc2)cc1 (centres unmarked) [Ih-1, N-(4-tert-butylphenyl)-4-(5-oxo-1,2,4-oxadiazolidine-3-yl)benzamide] | > 300 °C | 

Further molecules by falling IC50 [1], results first:

melting point | IC50 [1] | Compound
165 to 166 °C | 176 nM | CC(C)(C)c1ccc(NC(=O)c2ccc(C3OCCCO3)cc2)cc1 [Ia-1]
154 to 155 °C | 163 nM | CON=C(C)c1ccc(C(=O)Nc2ccc(C(C)(C)C)cc2)cc1 [Ij-4, N-(4-tert-butylphenyl)-4-(1-methoxyiminoethyl)benzamide]
176 to 177 °C | 6 nM | CC(C)(C)c1ccc(NC(=O)c2ccc(C3=NCCS3)cc2)cc1 [If-1, N-(4-tert-butylphenyl)-4-(2-thiazolinyl)benzamide]
